Experiments:
[1] = target: T1, human P2X3 receptor (Homo sapiens, UniProt P56373); experiment: Calcium luminescence measurement: human P2X3 receptor activity inhibition (CHO-K1 cells, photoprotein readout, FLEXSTATION); type: cell-based; conditions: CHO-K1 cells co-expressing human P2X3 and Ca2+ sensitive photoprotein; agonist α,β-Met-ATP; read-out: h-P2X3 IC50
T1 construct: expressed in transfected cells; host or cells: CHO-K1
T1 sequence (P56373 1-397): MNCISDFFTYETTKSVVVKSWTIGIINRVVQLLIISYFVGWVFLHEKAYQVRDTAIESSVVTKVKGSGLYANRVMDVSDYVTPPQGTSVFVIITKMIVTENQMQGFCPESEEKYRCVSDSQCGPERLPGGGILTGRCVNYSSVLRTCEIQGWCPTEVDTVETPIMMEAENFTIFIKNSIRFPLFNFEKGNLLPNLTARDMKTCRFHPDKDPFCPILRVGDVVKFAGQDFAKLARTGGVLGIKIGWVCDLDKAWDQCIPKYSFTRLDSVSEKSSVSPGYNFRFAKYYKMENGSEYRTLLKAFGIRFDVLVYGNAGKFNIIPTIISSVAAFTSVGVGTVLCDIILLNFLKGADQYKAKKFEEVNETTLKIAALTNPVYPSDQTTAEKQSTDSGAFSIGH
Description: Determination of human P2X3 receptor activity inhibition
The assay for the human purinergic P2RX3 receptor has been adapted to the internal screening instrumentation using the FLEXSTATION as reader and a photoprotein as luminescent readout. The assay consists of CHO-K1 cells recombinantly co-expressing the human P2rx3 receptor and a Ca^2+ sensitive photoprotein. Cells are maintained in DMEM F-12 (1:1) mixture (LONZA cat. n° BE04-687F/U1) supplemented with 9 mL of 100 mM Sodium Pyruvate (LONZA cat. n° BE13-115E), 29 mL of 7.5% Sodium Bicarbonate (LONZA cat. n° BE17-613E), 5.5 mL of 1 M Hepes (LONZA cat. n° BE17-737E), 5 mL of 100X Penicillin/Streptomycin mixture (LONZA cat. n° DE17-602E) and 50 mL of Fetal Bovine Serum (Sigma cat. n° F7524), 1 mg/mL G418 disulfate salt (Sigma cat. n° G8168) and 5 µg/ml Puromycin dihydrochloride (Sigma cat. n° P9620). Standard propagation conditions consist of seeding in a P75 flask twice a week, recovering about 20×10^6 cells, corresponding to about 80% confluency. Cells were seeded into black-walled clear bottom 96 well plates at a density of 40000 cells/well in a complete medium. After 24 h the culture medium was replaced with 200 µL/well of coelenterazine in Tyrode's buffer (Standard Tyrode's buffer: in house solution, 130 mM NaCl, 5 mM KCl, 2 mM CaCl2, 5 mM NaHCO3, 1 mM MgCl2, 20 mM HEPES, pH 7.4). Coelenterazine was purchased from BIOSYNTH (cat. n° C-7001). 10 mM stock solution was prepared in DMSO and glutathione and stored at -20° C. The plates were incubated for 4 hours at 37°C, and injected with 10 µL/well of test compounds at 25X concentration in Tyrode's buffer. After 4 minutes a second injection of 50 µL/well of 5X α,β-Met-ATP in Tyrode's buffer (α,β-Met-ATP: from Tocris (cat. n° 3209), was dissolved at 100 mM in water and stored in aliquots at -20°C) was performed and the signal of the emitted luminescence was recorded by FLEXSTATION III (Molecular Devices). […]
The inhibition curves of the tested compounds at cloned P2X3 receptor were determined by nonlinear regression analysis using software Prism 5.0 (Graphpad, San Diego, CA). The IC50 values and pseudo-Hill slope coefficients were estimated by the program.

[2] = target: T2, human P2X2/3 receptor (Homo sapiens, UniProt P56373+Q9UBL9); experiment: Calcium fluorescence measurement: human P2X2/3 receptor activity inhibition (CHO-K1 cells, Fluo-8 NoWash, […]); type: cell-based; conditions: for IC50: CHO-K1 cells expressing human P2RX2/X3 channel, 10µM α,β-Met-ATP, read-out: h-P2X2/3 IC50; for Selectivity: ratio of IC50 of P2X2/3/ P2X3 receptors
T2 construct: expressed in transfected cells; host or cells: CHO-K1
T2 sequence (P56373 1-397): T1 sequence (P56373 1-397)
T2 sequence (Q9UBL9 1-471): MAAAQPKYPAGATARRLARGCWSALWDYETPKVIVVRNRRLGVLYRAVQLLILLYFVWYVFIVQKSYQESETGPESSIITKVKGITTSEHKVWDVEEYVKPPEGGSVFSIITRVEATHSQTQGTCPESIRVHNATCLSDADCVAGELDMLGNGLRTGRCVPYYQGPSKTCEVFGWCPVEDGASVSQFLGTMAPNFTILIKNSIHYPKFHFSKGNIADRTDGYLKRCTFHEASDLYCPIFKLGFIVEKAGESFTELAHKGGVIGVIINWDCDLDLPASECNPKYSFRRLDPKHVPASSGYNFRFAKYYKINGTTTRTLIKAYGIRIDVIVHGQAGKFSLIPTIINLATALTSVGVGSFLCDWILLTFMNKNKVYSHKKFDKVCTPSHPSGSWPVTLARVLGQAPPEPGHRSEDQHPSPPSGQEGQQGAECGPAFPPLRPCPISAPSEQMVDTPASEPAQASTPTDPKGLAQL
Description: Determination of human P2X2/3 receptor activity inhibition
The assay for the human P2RX2/X3 has been evaluated by the screening instrumentation using the […] as reader and the FLUO8-NoWash dye as fluorescent readout for calcium detection.
CHO-K1 cells recombinantly expressing the human P2RX2/X3 channel are maintained in DMEM F-12 (1:1) mixture (LONZA cat. n°: BE04-687F/U1) supplemented with 5 mL of 100 mM Sodium Pyruvate (LONZA cat. n° BE13-115E), 25 mL of 7.5% Sodium Bicarbonate (LONZA cat. n° BE17-613E), 6.5 mL of 1M Hepes (LONZA cat. n° BE17-737E), 5 mL of 100X Penicillin/Streptomycin mixture (LONZA cat. n° DE17-602E) and 50 mL of Fetal Bovine Serum (Sigma cat. n° F7524), 5 µg/mL Puromycin dihydrochloride (Sigma cat. n° P9620) and 1 mg/ml G418 disulfate salt (Sigma cat. n° G8168).
Cells were seeded into black-walled clear bottom 384 Multiwell plates at a density of 10.000 cells/well in complete medium. After 24 h the culture medium was replaced with 20 µL/well of Fluo-8 NoWash calcium sensitive dye (AAT Bioquest cat. n° 36316) diluted in Tyrode's buffer (Standard Tyrode's buffer: in house solution, 130 mM NaCl, 5 mM KCl, 2 mM CaCl2, 5 mM NaHCO3, 1 mM MgCl2, 20 mM HEPES, pH 7.4).
The plates were incubated for 1 hours at 37°C and injected with 10 µL/well of test compounds at 3X concentration in Tyrode's buffer with the […]. After 5 minutes a second injection of 15 µL/well of 10µM α,β-Met-ATP in Tyrode's buffer (α,β-Met-ATP: from Tocris cat. n° 3209) was performed and the signal of the emitted fluorescence was recorded by […] (Molecular Devices).
The selectivity is expressed as the ratio of IC50 of P2X2/3/ P2X3 receptors. Table 8: Human P2X3 and h-P2X2/3 receptor antagonist activity for selected compounds of the invention.

SMILES | IC50 [1] | IC50 [2] | Selectivity [2]
COc1ccc(Cn2c(=O)n3c(C(C)(C)C)nnc3c3ncc(N4CCNCC4)cc32)cc1 [Example 35, 3-tert-Butyl-6-[(4-methoxyphenyl)methyl] -8-(piperazin-1-yl)pyrido[2,3-e][1,2,4]triazolo[4,3-c]pyrimidin-5(6H)-one] | 0.33 µM | > 30 µM | >90
COc1ccc(Cn2c(=O)n3c(C(C)(C)C)nnc3c3ncc(N4CCN(C(C)=O)CC4)cc32)cc1 [Example 36, 8-(4-Acetylpiperazin-1-yl)-3-tert-butyl-6-[(4-methoxyphenyl)methyl]pyrido[2,3-e][1,2,4]triazolo[4,3-c]pyrimidin-5(6H)-one] | 0.136 µM | > 30 µM | >119
COc1ccc(Cn2c(=O)n3c(C(C)(C)C)nnc3c3ncc(N4CCCCC4)cc32)cc1 [Example 38, 3-tert-Butyl-6-[(4-methoxyphenyl)methyl]-8-(piperidin-1-yl)pyrido[2,3-e][1,2,4]triazolo[4,3-c]pyrimidin-5(6H)-one] | 0.0506 µM | 19.9 µM | >392
CC(C)(C)c1nnc2c3ncc(N4CC[C@@H](O)C4)cc3n(Cc3ccc(Cl)cc3)c(=O)n12 [Example 43, 3-tert-Butyl-6-[(4-chlorophenyl)methyl]-8-[(3R)-3-hydroxypyrrolidin-1-yl]pyrido[2,3-e][1,2,4]triazolo[4,3-c]pyrimidin-5(6H)-one] | 0.0676 µM | > 30 µM | >444
CC(C)(C)c1nnc2c3nnc(N4CCC(O)CC4)cc3n(Cc3ccc(Cl)cc3)c(=O)n12 [Example 55, 3-tert-Butyl-6-[(4-chlorophenyl)methyl]-8-(4-hydroxypiperidin-1-yl)[1,2,4]triazolo[4',3': 1,6]pyrimido[5,4-c]pyridazin-5(6H)-one] | 0.025 µM | > 30 µM | >1200

Further lines, results first:

IC50 [1] | IC50 [2] | Selectivity [2] | SMILES
0.0249 µM | > 30 µM | >1000 | COC(C)(C)c1nnc2c3nnc(N4CCOCC4)cc3n(Cc3ccc(Cl)cc3)c(=O)n12 [Example 48, 6-[(4-Chlorophenyl)methyl]-3-(2-methoxypropan-2-yl)-8-(morpholin-4-yl)[1,2,4]triazolo[4',3': 1,6]pyrimido[5,4-c]pyridazin-5(6H)-one]
0.0195 µM | > 30 µM | >1500 | CC(C)(C)Cc1nnc2c3nnc(N4CCOCC4)cc3n(Cc3ccc(Cl)cc3)c(=O)n12 [Example 49, 6-[(4-Chlorophenyl)methyl]-3-(2,2-dimethylpropyl)-8-(morpholin-4-yl)[1,2,4]triazolo[4',3':1,6]pyrimido[5,4-c]pyridazin-5(6H)-one]
0.0986 µM | > 30 µM | >304 | CN(C)c1nnc2c3nnc(N4CCOCC4)cc3n(Cc3ccc(Cl)cc3)c(=O)n12 [Example 50, 6-[(4-Chlorophenyl)methyl] -3 - (dimethylamino)-8-(morpholin-4-yl)[1,2,4]triazolo[4',3': 1,6]pyrimido[5,4-c]pyridazin-5(6H)-one]

— EP4389746A2, “P2X3 RECEPTOR ANTAGONISTS” (Recordati Industria Chimica E Farmaceutica SPA, priority 2022, dated 2024)
